Here are results for four molecules from patent US20260027190A1, “OVARIAN TUMOR DEUBIQUITINASE OXIDATION AND USES THEREOF” (The University of Vermont and State Agricultural College, priority 2022, published 2026).

Residues, ends and D or L forms follow the SMILES beside them. *: point of attachment. Cbz = O=C(OCc1ccccc1)*

In assay [1] the test system is mouse tracheal epithelial (MTE) cells. Nature of the assay: Total GSH measurement (DTNB assay) in MTE cells. The assay is classed as cell-based. As to the method:
It has been previously shown that the pleotropic cytokine IL1B augments glycolysis in lung epithelial cells, and that interleukin 1B (IL1B) is linked to oxidative stress. The pentose phosphate pathway, an offshoot of glycolysis, regulates the redox environment by providing nicotinamide adenine dinucleotide phosphate (NADPH) reducing equivalents necessary for glutathione (GSH) homeostasis. The effects of GSH in response to IL1B were examined. Briefly, GSH was measured using a 5,5′-dithio-bis (2-nitrobenzoic acid) (DTNB) assay in both control and IL1B-stimulated mouse tracheal epithelial cells. […] Statistics on the left panel represent the total GSH levels, without differentiating between labeled and unlabeled portions of GSH (P-value*<0.05, ****<0.0001).
(§1) A regulator of GSH homeostasis is the transporter system xC-, which exports glutamate and concomitantly imports cystine in a 1:1 ratio. Once inside the cells, cystine is reduced to two cysteines, the latter being the rate limiting amino acid required for GSH synthesis. These relationships were examined further. […] To address whether IL1B-induced increases in GSH are system xC- dependent, two system xC- inhibitors, erastin (Er) and sulfasalazine (SAS) were used. Cells were pretreated for one hour, followed by IL1B treatment for 24 hours. Then, GSH levels were measured in cells exposed to increasing doses of Er or SAS (FIG. 2G). Extracellular glutamate levels in cell culture supernatant of cells pretreated with 0.5 micromolar Er (left) or 100 micromolar SAS (right) for 1 hour before IL1B stimulation were also measured (FIG. 2H). […] System xC- inhibition is known to induce ferroptosis, an iron-dependent mode of cell death characterized by increased lipid peroxidation. However, no changes in cell viability using erastin (5 micromolar) or sulfasalazine (500 micromolar) were detected (FIG. 2I; P-value*<0.05, ***<0.001, ****<0.0001).
(§2) Primary mouse tracheal epithelial (MTE) cells were isolated from C57BL/6NJ wild-type or C57BL6/NJ mice lacking Glrx1 gene and cultured. Cells were grown on collagen coated plastic plates or transwell inserts with media change every 2 days until confluency. For interleukin 1B (IL1B) treatment: cells were incubated in plain Dulbecco's Modified Eagle Medium (DMEM): F12 media containing 6 mM glucose and 2 mM glutamine overnight followed by stimulation with 10 ng/ml IL1B or 0.1% bovine serum albumin (BSA) in phosphate buffered saline (PBS) (vehicle control) for 24 hours. Treatment with crastin, sulfasalazine or BSO occurred 1 hour before IL1B stimulation. Media and cells were collected for further analysis. For growing H522 and OTUB1-CRISPR-H522 cells: Roswell Park Memorial Institute (RPMI) media supplemented with 10% fetal bovine serum (FBS) and 1% pen/strep was used to grow the cells. Plasmid over-expression and OTUB1 knock-down experiments were done when cells were 60-70% confluent.
Cell lysates were prepared in 100 mM potassium phosphate buffer containing 0.6% sulfosalicylic acid, 1 mM ethylenediaminetetraacetic acid (EDTA) and 0.01% triton-x-100. To measure total glutathione (GSH), equal amounts of proteins were incubated with 3 micromolar 5,5′-dithio-bis (2-nitrobenzoic acid) (DTNB) reagent and 2.25 microgram/ml glutathione reductase followed by the addition of 240 micromolar Nicotinamide adenine dinucleotide phosphate (NADPH). Kinetic absorbance was measured every minute at 412 nm for 20 minutes. […]

For assay [2] the test system is unchanged. Nature of the assay: Extracellular glutamate in cell culture supernatant of MTE cells. The assay is classed as cell-based.
Source text: as §1, §2
Glutamate in media was measured using Biovision kit following manufacturer's protocol.

Assay [3] has as its system SLC7A11. Briefly: SLC7A11 non-reducing Western blot in MTE cells. The assay is classed as cell-based, mouse. Particulars: MG132 5 micrograms/ml, 24 hours. As to the method: OTUB1 was previously shown to interfere with ubiquitination and subsequent proteasomal degradation of SLC7A11. A SLC7A11 non-reducing Western blot using MTE cells pretreated with 5 micrograms/ml MG132 or 10 ng/ml IL1B for 24 hours with ACTB used as a loading control was performed (FIG. 7A). In addition, an assessment of GSH levels in MG132-(5 micrograms/ml, 24 hours) (FIG. 7B, left) or bortezomib-(FIG. 7B, right) (0.3 micromolar, 24 hours) treated MTE cells was undertaken (P-value***<0.001, ****<0.0001). Extracellular glutamate levels in MG132-treated MTE cells were also assessed (5 micrograms/ml, 24 hours) (FIG. 7C) (P-value***<0.001, ****<0.0001). The proteasome inhibitors MG132 or bortezomib increased SCL7A11, GSH and extracellular glutamate levels in tracheal epithelial cells (FIGS. 7A-7C), identifying the importance of proteasomal degradation of SLC7A11 in regulating system xC- and glutathione levels.
Bio-Rad DC protein estimation kit was used to determine protein concentration in cell lysates. Equal amounts of proteins were resolved using sodium dodecyl sulfate (SDS)-polyacrylamide gel electrophoresis and transferred to polyvinylidene difluoride (PVDF) membranes, blocked in 5% BSA and incubated with primary antibodies overnight. Membranes were subsequently incubated with peroxidase-conjugated secondary antibodies for one hour and then visualized using chemiluminescence.

In assay [4] the test system is mouse tracheal epithelial (MTE) cells. Nature of the assay: Calcein AM cell viability in MTE cells. The settings on record: sulfasalazine 500 micromolar. The class given is cell-based.
Source text: Invitrogen Live/Dead viability/cytotoxicity kit was used to measure cell viability according to manufacturer's instruction. Data was expressed as percentage survival compared to control untreated cells.
Assay [5] shares this test system. Briefly: Total PSSG in MTE cells treated with recombinant GLRX. The settings on record: direct administration of recombinant protein to MTE cells. The class given is cell-based. The procedure:
OTUB1 was one of the PSSG targets detected in IL1B-stimulated epithelial cells raising the possibility that S-glutathionylation of OTUB1 affects the stability of SLC7A11. To investigate this, immunoprecipitation of GSH followed by Western Blotting of OTUB1 in MTE cells treated with vehicle or IL1B was performed. Dithiothreitol (DTT) was incubated with cell lysates prior to immunoprecipitation as a negative control. OTUB1 levels from whole cell lysates were used as the input control. Increases in OTUB1 S-glutathionylation (OTUB1-SSG) in response to IL1B were observed, with further increases occurring in cells lacking Glrx (FIG. 4G), consistent with the role of GLRX as a deglutathionylating enzyme. Western blots were performed using cells treated with the WT- or C23S-mutant GLRX recombinant protein to examine the presence of glutaredoxin (FIG. 4H) and total PSSG (FIG. 4I) (P-value*<0.05, **<0.01, ***<0.001, ****<0.0001). […] Glutathione was evaluated in MTE cells treated with recombinant WT- or C23S-mutant GLRX (FIG. 4J) and glutamate in cell culture supernatant of MTE cells treated with WT or the C23S mutant GLRX was also evaluated (FIG. 4K). […]
Cell lysates were prepared in 100 mM potassium phosphate buffer containing 0.6% sulfosalicylic acid, 1 mM ethylenediaminetetraacetic acid (EDTA) and 0.01% triton-x-100. […] Kinetic absorbance was measured every minute at 412 nm for 20 minutes. […]

The test system of assay [6] is OTUB1. Briefly: OTUB1-SSG: GSH immunoprecipitation followed by OTUB1 Western blot. The class given is cell-based, mouse. The settings on record: cells treated with recombinant protein. The procedure: OTUB1 was one of the PSSG targets detected in IL1B-stimulated epithelial cells raising the possibility that S-glutathionylation of OTUB1 affects the stability of SLC7A11. To investigate this, immunoprecipitation of GSH followed by Western Blotting of OTUB1 in MTE cells treated with vehicle or IL1B was performed. Dithiothreitol (DTT) was incubated with cell lysates prior to immunoprecipitation as a negative control. OTUB1 levels from whole cell lysates were used as the input control. Increases in OTUB1 S-glutathionylation (OTUB1-SSG) in response to IL1B were observed, with further increases occurring in cells lacking Glrx (FIG. 4G), consistent with the role of GLRX as a deglutathionylating enzyme. Western blots were performed using cells treated with the WT- or C23S-mutant GLRX recombinant protein to examine the presence of glutaredoxin (FIG. 4H) and total PSSG (FIG. 4I) (P-value*<0.05, **<0.01, ***<0.001, ****<0.0001). GAPDH was used as a loading control. Glutathione was evaluated in MTE cells treated with recombinant WT- or C23S-mutant GLRX (FIG. 4J) and glutamate in cell culture supernatant of MTE cells treated with WT or the C23S mutant GLRX was also evaluated (FIG. 4K). […]

Setting [7] is: MG132 5 micrograms/ml, 24 hours, MTE cells.
The mark [8] stands for this setting: direct administration of recombinant protein to MTE cells.

As for `CC(C)C[C@@H](C=O)NC(=O)[C@H](CC(C)C)NC(=O)[C@H](CC(C)C)NC(=O)OCc1ccccc1` [MG132] (Cbz-Leu-Leu-Leu-aldehyde), the GSH levels result in assay [1] (setting [7]) is “increased”. Besides, the extracellular glutamate levels entry in assay [2] (setting [7]) is on record as “increased”. The SLC7A11 levels entry in assay [3] is on record as “increased”.
`O=C(O)c1cc(/N=N/c2ccc(S(=O)(=O)Nc3ccccn3)cc2)ccc1O` [sulfasalazine]: the “IL1B-induced increases in GSH” value in assay [1] (MTE cells pretreated 1 hour with increasing doses of Er or SAS, then IL1B 24 hours) is recorded as “significantly decreased”. For the same molecule, the “IL1B-induced extracellular glutamate levels” value in assay [2] (MTE cells pretreated with 100 micromolar SAS for 1 hour before IL1B stimulation) is on record as “significantly decreased”. In addition, in assay [4], the cell viability result is “no changes”.
Regarding `CC(C)C[C@H](NC(=O)[C@H](Cc1ccccc1)NC(=O)c1cnccn1)B(O)O` [bortezomib], the GSH levels result in assay [1] (bortezomib 0.3 micromolar, 24 hours, MTE cells) was “increased”.

B1: C23S GLRX: catalytically inactive C23S mutant GLRX recombinant protein (protein, UniProt P35754 2-106, looked up, variant C23S)
Glutaredoxin-1: AQEFVNCKIQPGKVVVFIKPTSPYCRRAQEILSQLPIKQGLLEFVDITATNHTNEIQDYLQQLTGARTVPRVFIGKDCIGGCSDLVSLQQSGELLTRLKQIGALQ
Regarding B1, in assay [1] (setting [8]), the GSH levels entry was “did not elicit these effects”. Besides, in assay [2] (setting [8]), the extracellular glutamate entry was “did not elicit these effects”. Also, the “overall PSSG” value in assay [5] is on record as “did not elicit these effects”. Further, the “OTUB1-SSG (OTUB1 S-glutathionylation)” value in assay [6] is recorded as “not”.
